Consider three compounds from patent US12660819B2, “Herbicidal derivatives” (SYNGENTA CROP PROTECTION AG, priority 2020, dated 2026).

What all share (type): in vivo
For assay [1], the system named is Zea mays (ZEAMX). Nature of the assay: Pre-emergence Test (glasshouse, percentage damage to the plant). As to conditions: 1000 g/ha unless otherwise stated, Zea mays.
Assay [2] relates to Setaria faberi (SETFA). Nature of the assay: Post-emergence Test (glasshouse, percentage damage to the plant). As to conditions: post-emergence; 1000 g/ha unless otherwise stated; evaluated after 13 days. Summed up: (§1)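 Spray treatment of sown glasshouse pots at 1000 g/ha (default rate), vehicle acetone/water 50:50 plus 0.5% Tween 20. Read-out: percentage damage after 13 days, converted to a score where 5 denotes 81-100% and 1 denotes 0-20%.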

The test system of assay [3] is Amaranthus palmeri (AMAPA). Described as above. As to conditions: post-emergence; 1000 g/ha unless otherwise stated; evaluated after 13 days. The procedure, abridged:
(§2)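 Seeds sown in standard soil in a glasshouse (24/16 °C day/night, 14 h light, 65% humidity), then sprayed with an aqueous solution of the compound formulated in acetone/water 50:50 with 0.5% Tween 20 at 1000 g/ha unless otherwise stated. Percentage damage was scored after 13 days on a five-point scale (5=81-100%; 1=0-20%).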

Assay [4] concerns Echinochloa crus-galli (ECHCG). Described as above. As to conditions: post-emergence; 1000 g/ha unless otherwise stated; evaluated after 13 days. The procedure, abridged:
as §2

Assay [5] has as its system Ipomoea hederacea (IPOHE). The assay is described as above. As to conditions: post-emergence; 1000 g/ha unless otherwise stated; evaluated after 13 days. The procedure, abridged: as §1
Assay [6] relates to Zea mays (ZEAMX). The assay is described as above. As to conditions: post-emergence; 1000 g/ha unless otherwise stated; evaluated after 13 days. Summed up:
as §1

The test system of assay [7] is Amaranthus retoflexus (AMARE). Described as above. As to conditions: post-emergence; 1000 g/ha unless otherwise stated; evaluated after 13 days. Summed up: as §2
Assay [8] deals with Ipomoea hederacea (IPOHE). The assay is described as follows: Pre-emergence Test (glasshouse, percentage damage to the plant). As to conditions: 1000 g/ha unless otherwise stated, Ipomoea hederacea.
The subject of assay [9] is Setaria faberi (SETFA). Described as above. As to conditions: 1000 g/ha unless otherwise stated, Setaria faberi.
In assay [10] the test system is Amaranthus palmeri (AMAPA). The assay is described as above. As to conditions: 1000 g/ha unless otherwise stated, Amaranthus palmeri.
Assay [11] concerns Echinochloa crus-galli (ECHCG). The description is as above. As to conditions: 1000 g/ha unless otherwise stated, Echinochloa crus-galli.
In assay [12] the test system is Amaranthus retoflexus (AMARE). The description is as above. As to conditions: 1000 g/ha unless otherwise stated, Amaranthus retoflexus.

Molecules are shown by their SMILES.

In the case of `CCn1c(C)c(-c2ccc(F)cc2)c(=O)c(C(=O)O)c1-c1cnc(Cl)c(Cl)c1` [Compound 211, 2-(5,6-dichloro-3-pyridyl)-1-ethyl-5-(4-fluorophenyl)-6-methyl-4-oxo-pyridine-3-carboxylic acid], the “percentage damage to the plant, ZEAMX (five-point scale)” value (“percentage damage to the plant, ZEAMX” below) in [1] was found to be 0. Also, the “SETFA, percentage damage caused to the plant (five-point scale)” value (shortened to “SETFA, percentage damage caused”) in assay [2] is 1 (1=0-20%). Besides, in assay [3], the “AMAPA, percentage damage caused to the plant (five-point scale)” value (“AMAPA, percentage damage caused” for short) is listed as 3 (3=41-60%). Moreover, in assay [4], the “ECHCG, percentage damage caused to the plant (five-point scale)” value (“ECHCG, percentage damage caused” below) was 1 (1=0-20%). Moreover, the “IPOHE, percentage damage caused to the plant (five-point scale)” value (shortened to “IPOHE, percentage damage caused”) in [5] is given as 1 (1=0-20%). Also, in [6], the “ZEAMX, percentage damage caused to the plant (five-point scale)” value (“ZEAMX, percentage damage caused” for short) is reported as 1 (1=0-20%). Moreover, the “AMARE, percentage damage caused to the plant (five-point scale)” value (“AMARE, percentage damage caused” below) in assay [7] is reported as 2 (2=21-40%). In addition, the “percentage damage to the plant, IPOHE (five-point scale)” value (shortened to “percentage damage to the plant, IPOHE”) in [8] is 0. In addition, the “percentage damage to the plant, SETFA (five-point scale)” value (“percentage damage to the plant, SETFA” for short) in assay [9] worked out at 0. In addition, the “percentage damage to the plant, AMAPA (five-point scale)” value (“percentage damage to the plant, AMAPA” below) in assay [10] was 4 (4=61-80%). In addition, the “percentage damage to the plant, ECHCG (five-point scale)” value (shortened to “percentage damage to the plant, ECHCG”) in assay [11] was 1 (1=0-20%). Further, the “percentage damage to the plant, AMARE (five-point scale)” value (“percentage damage to the plant, AMARE” for short) in assay [12] is given as 1 (1=0-20%).
Take `CCn1c(C)c(-c2ccc(F)cc2)c(=O)c(C(=O)OC)c1-c1cnc(Cl)c(Cl)c1` [Compound 212, methyl 2-(5,6-dichloro-3-pyridyl)-1-ethyl-5-(4-fluorophenyl)-6-methyl-4-oxo-pyridine-3-carboxylate]: the “percentage damage to the plant, ZEAMX” value in [1] amounted to 0. In addition, in [2], the “SETFA, percentage damage caused” value came out at 0. In addition, the “AMAPA, percentage damage caused” value in [3] is on record as 1 (1=0-20%). Further, in [4], the “ECHCG, percentage damage caused” value is listed as 0. Moreover, the “IPOHE, percentage damage caused” value in [5] came out at 0. The “ZEAMX, percentage damage caused” value in assay [6] was 0. In addition, the “AMARE, percentage damage caused” value in assay [7] is 1 (1=0-20%). Further, the “percentage damage to the plant, IPOHE” value in assay [8] amounted to 0. In addition, the “percentage damage to the plant, SETFA” value in assay [9] is reported as 3 (3=41-60%). The “percentage damage to the plant, AMAPA” value in [10] is given as 1 (1=0-20%). In addition, the “percentage damage to the plant, ECHCG” value in assay [11] is 2 (2=21-40%). The “percentage damage to the plant, AMARE” value in [12] is on record as 0.
With `CCn1c(C)c(-c2ccc(Cl)cc2Cl)c(=O)c(C(=O)OC)c1-c1cnc(Cl)c(Cl)c1` [Compound 214, methyl 5-(2,4-dichlorophenyl)-2-(5,6-dichloro-3-pyridyl)-1-ethyl-6-methyl-4-oxo-pyridine-3-carboxylate], the “percentage damage to the plant, ZEAMX” value in assay [1] came to 0. Further, the “SETFA, percentage damage caused” value in assay [2] is 1 (1=0-20%). Further, the “AMAPA, percentage damage caused” value in assay [3] was 2 (2=21-40%). The “ECHCG, percentage damage caused” value in [4] is reported as 0. Also, the “IPOHE, percentage damage caused” value in [5] was found to be 0. The “ZEAMX, percentage damage caused” value in [6] was 1 (1=0-20%). Besides, in assay [7], the “AMARE, percentage damage caused” value is recorded as 2 (2=21-40%). Moreover, the “percentage damage to the plant, IPOHE” value in assay [8] is on record as 0. The “percentage damage to the plant, SETFA” value in [9] is 0. For the same compound, the “percentage damage to the plant, AMAPA” value in assay [10] is 0. In addition, in [11], the “percentage damage to the plant, ECHCG” value came to 0. Moreover, in [12], the “percentage damage to the plant, AMARE” value worked out at 0.
